Assay results reported in the supplement of paper PMC10307832.

Key:
Assay in all cases: relative viability (nuclei count vs DMSO), 5 days (fraction); higher = more cells survive
Kobe2602 + Tozasertib = compound: C1=CC(=CC=C1NC(=S)NNC2=C(C=C(C=C2[N+](=O)[O-])C(F)(F)F)[N+](=O)[O-])F [Kobe2602] + Cc1cc(Nc2cc(N3CCN(C)CC3)nc(Sc3ccc(NC(=O)C4CC4)cc3)n2)n[nH]1 [Tozasertib] (partner 0.1 µM)
Procedure, shortened: (§1)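 The day after seeding in 1536-well plates, lung cancer cell lines were treated by pin tool with a single drug, or with a fixed anchor-drug dose together with five library-drug doses (not always all listed) in √10 steps. After 5 days, a combined fix-and-stain solution (final 0.05% Triton X-100, 1% formaldehyde, 1 ug/ml Hoechst) was added. Nuclei counted on 4× images gave relative viability as treated counts over vehicle counts, reported as the median of duplicate plates.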

Cabozantinib + OSI-027 = compound: COc1cc2nccc(Oc3ccc(NC(=O)C4(C(=O)Nc5ccc(F)cc5)CC4)cc3)c2cc1OC [Cabozantinib] + COc1cccc2cc(-c3nc([C@H]4CC[C@H](C(=O)O)CC4)n4ncnc(N)c34)[nH]c12 [OSI-027] (partner 0.5 µM)
Procedure, shortened: as §1

Zosuquidar + Linsitinib = compound: O[C@@H](COc1cccc2ncccc12)CN1CCN([C@@H]2c3ccccc3[C@@H]3[C@H](c4ccccc42)C3(F)F)CC1 [Zosuquidar] + C[C@]1(O)C[C@@H](c2nc(-c3ccc4ccc(-c5ccccc5)nc4c3)c3c(N)nccn32)C1 [Linsitinib] (partner 1 µM)
Procedure, shortened: as §1

Zosuquidar + Decitabine = compound: O[C@@H](COc1cccc2ncccc12)CN1CCN([C@@H]2c3ccccc3[C@@H]3[C@H](c4ccccc42)C3(F)F)CC1 [Zosuquidar] + Nc1ncn([C@H]2C[C@H](O)[C@@H](CO)O2)c(=O)n1 [Decitabine] (partner 2 µM)
Procedure, shortened: as §1

Cell Line	relative viability (Kobe2602 + Tozasertib; first compound 0.2 µM)	relative viability (Kobe2602 + Tozasertib; first compound 0.6325 µM)	relative viability (Kobe2602 + Tozasertib; first compound 2 µM)	relative viability (Kobe2602 + Tozasertib; first compound 6.325 µM)	relative viability (Kobe2602 + Tozasertib; first compound 20 µM)	relative viability (Cabozantinib + OSI-027; first compound 0.02 µM)	relative viability (Cabozantinib + OSI-027; first compound 0.06325 µM)	relative viability (Cabozantinib + OSI-027; first compound 0.2 µM)	relative viability (Cabozantinib + OSI-027; first compound 0.6325 µM)	relative viability (Cabozantinib + OSI-027; first compound 2 µM)	relative viability (Zosuquidar + Linsitinib; first compound 0.01 µM)	relative viability (Zosuquidar + Linsitinib; first compound 0.03162 µM)	relative viability (Zosuquidar + Linsitinib; first compound 0.1 µM)	relative viability (Zosuquidar + Linsitinib; first compound 0.3162 µM)	relative viability (Zosuquidar + Linsitinib; first compound 1 µM)	relative viability (Zosuquidar + Decitabine; first compound 0.01 µM)	relative viability (Zosuquidar + Decitabine; first compound 0.03162 µM)	relative viability (Zosuquidar + Decitabine; first compound 0.1 µM)	relative viability (Zosuquidar + Decitabine; first compound 0.3162 µM)	relative viability (Zosuquidar + Decitabine; first compound 1 µM)
NCI-H1975	0.614	0.432	0.511	0.689	0.355	0.676	0.763	0.668	0.679	0.543	0.928	0.905	1.07	1.01	1.02	0.4	0.402	0.423	0.411	0.547
NCI-H1355	0.587	0.597	0.534	0.534	0.542	0.291	0.477	0.412	0.458	0.411	0.864	0.798	0.641	0.87	0.887	0.388	0.393	0.355	0.382	0.401
NCI-H1755	0.638	0.596	0.557	0.608	0.554	0.627	0.729	0.775	0.585	0.575	0.948	0.977	0.958	1.01	0.965	0.672	0.663	0.716	0.728	0.708
NCI-H2009	0.713	0.801	0.619	0.715	0.7	0.642	0.724	0.695	0.674	0.496	1.22	1.25	1.15	1.16	1.2	0.348	0.338	0.376	0.327	0.344
NCI-H1395	0.72	0.793	0.878	0.741	0.776	0.514	0.675	0.632	0.69	0.573	1.39	1.17	0.796	1.04	1.1	0.707	0.765	–	0.765	0.773
HCC-78	0.428	0.413	0.369	0.314	0.525	–	0.439	0.287	0.291	0.258	0.67	0.556	–	0.486	0.542	0.75	–	–	0.804	0.637
NCI-H322M	0.518	0.534	0.493	0.538	0.533	0.475	0.596	0.486	0.572	0.54	0.917	0.859	0.729	0.851	0.922	0.598	0.548	0.666	0.632	0.625
HOP-62	0.399	0.359	0.418	0.341	0.335	0.825	0.915	0.781	0.829	0.781	0.834	1.12	1.13	0.886	0.991	0.215	0.223	0.25	0.203	0.21
NCI-H838	0.242	0.249	0.242	0.255	0.254	0.458	0.38	0.339	0.414	0.366	1.01	0.981	1.02	1.09	1.06	0.488	0.49	0.486	0.496	0.502
LK-2	0.174	0.188	0.189	0.174	0.174	0.158	0.193	0.211	0.229	0.225	0.663	0.745	0.515	0.722	0.574	0.247	0.361	0.28	0.372	0.304
BEN	0.56	0.518	0.491	0.666	0.555	0.314	0.311	0.28	0.299	0.24	1.05	0.896	0.766	0.859	0.936	0.695	0.664	0.659	0.822	0.787
NCI-H23	0.464	0.342	0.308	0.829	0.236	–	0.729	0.645	0.624	0.489	0.601	0.449	0.483	0.504	0.675	0.29	–	0.306	0.302	0.324
NCI-H1944	0.264	0.267	0.262	0.245	0.279	0.282	0.425	0.389	0.444	0.402	1.21	1.17	1.08	1.09	1.17	0.365	0.454	0.469	0.453	0.439
NCI-H2085	0.736	0.772	0.775	0.567	0.751	0.817	0.756	0.661	0.66	0.642	0.867	0.982	0.919	0.901	0.995	0.556	0.586	–	0.653	0.55
LC-2-ad	0.478	0.534	0.489	0.453	0.472	–	0.933	0.74	0.839	0.729	0.776	0.857	0.873	0.797	0.895	0.878	0.922	0.876	0.725	0.776
201T	0.94	0.968	0.966	0.924	0.881	0.453	0.877	0.772	0.877	0.774	1.06	1.01	0.892	0.961	1.01	0.848	0.858	0.837	0.867	0.864
